According to US10806694B2, “Nanoparticles for photodynamic therapy, X-ray induced photodynamic therapy, radiotherapy, radiodynamic therapy, chemotherapy, immunotherapy, and any combination thereof” (The University of Chicago, priority 2014, dated 2020):

Columns and labels:
[1] = Fluorescence lifetime by Time-Correlated Single Photon Counting; fluorescence intensity; assay type: physicochemical
Experimental: The fluorescence spectra of H2DBP ligand and DBP-UiO NMOF were taken on a spectrofluorophotometer (RF-5301PC, Shimadzu Corporation, Kyoto, Japan).
Time-domain lifetimes were measured on a ChronosBH lifetime fluorimeter (ISS, Inc., Champaign, Ill., United States of America) using Time-Correlated Single Photon Counting (TCSPC) methods. The fluorimeter contained Becker-Hickl SPC-130 detection electronics and an HPM-100-40 Hybrid PMT detector. Tunable picosecond pulsed excitation was provided by a Fianium SC400-2 supercontiuum laser source with integrated pulse picker and AOTF. Emission wavelengths were selected with bandpass filters (Semrock and Chroma). The Instrument Response Function (IRF) was measured to be approximately 120 ps FWHM in a 1% scattering solution of Ludox LS colloidal silica. Lifetimes were fit via a forward convolution method in the Vinci control and analysis software.
Fluorescence spectra of suspensions of Hf-MOF (0.04 mM of L ligand) in water, DMF, and THF were taken with an excitation wavelength of 368.8 nm. […] Fluorescence lifetimes of Hf-MOF, Zr-MOF, and H2L suspensions in water were also examined.

[2] = Singlet oxygen generation with Singlet Oxygen Sensor Green (SOSG) under LED irradiation; assay type: physicochemical; details: for k (fitting parameter for 1O2 generation curve): 0.1 W/cm^2, 650 nm LED for DBC-UiO and H2DBC, 640 nm for the others
Experimental: A light-emitting diode (LED) array with peak emission at 640 nm was used as the light source of singlet oxygen generation. The irradiance of LED is 100 mW/cm^2. Singlet oxygen sensor green (SOSG) reagent (Life Technologies, Carlsbad, Calif., United States of America) was employed for the detection of singlet oxygen. H2DBP and DBP-UiO samples were prepared in 5 μM solutions/suspensions in HBSS buffer (for DBP-UiO samples, the concentration was calculated as ligand equivalents). To 2 mL each of these solutions/suspensions, SOSG stock solution (5 μL at 5 mM) was added (final concentration=12.5 μM) before fluorescence measurement.
For a typical measurement, fluorescence intensity was acquired on a spectrofluorophotometer (RF-5301PC, Shimadzu Corporation, Kyoto, Japan) with excitation at 504 nm and emission at 525 nm (slit width 3 nm/5 nm for ex/em). Fluorescence was measured after irradiation by LED for 0 (as background), 10 s, 20 s, 30 s, 1 min, 1.5 min, 2 min, 2.5 min, 3 min, 3.5 min, 4 min, 4.5 min, 5 min, 6 min and 7 min.
Singlet oxygen generation efficiencies of H2DBP and DBP-UiO were determined using Singlet Oxygen Sensor Green (SOSG, Life Technologies). After exposure to a LED light source (peak emission at 640 nm, energy irradiance of 100 mW/cm^2), the […] reagent SOSG reacted with ^1O2 to generate green fluorescence which was quantified with a fluorimeter. The fluorescence intensity was plotted against irradiation time. […] The ^1O2 generation curve was fitted with the following equation: IF=A(1−e^−kt) (1) Where IF is fluorescence intensity and t represents irradiation time while A and k are fitting parameters (for detailed derivations, see SI). […]
Singlet Oxygen Sensor Green (SOSG) was employed to determine ^1O2 generation efficiencies of H2DBC and DBC-UiO. SOSG reacted with generated ^1O2 to give green fluorescence (λem=525 nm) that was quantified with a fluorometer. For comparison, ^1O2 generation efficiency of H2DBP, DBP-UiO and protoporphyrin IX (PpIX) were also determined. […]

CT26 cells = test: In vitro PDT cytotoxicity; assay type: cell-based, murine; details: with irradiation, LED 90 J/cm^2 (0.1 W/cm^2, 15 min), 640 or 650 nm
Experimental: (§1) The tumor cell uptake of NMOFs was evaluated by incubating CT26 cells with DBP-UiO or DBC-UiO at a Hf concentration of 50 μM for 4 h. […] The in vitro PDT efficacy of DBC-UiO against colon cancer cells was investigated and compared with DBP-UiO and their corresponding free ligands. […] DBP-UiO and […]: 640 nm; DBC-UiO and […]: 650 nm). DBC-UiO outperformed DBP-UiO by effectively killing both cancer cell lines at low NMOF and light doses.

HT29 cells = test: In vitro PDT cytotoxicity; assay type: cell-based, human; details: with irradiation, LED 90 J/cm^2 (0.1 W/cm^2, 15 min), 640 or 650 nm
Experimental: as §1

[3] = tested on: subcutaneous flank tumor mouse model of CT26; test: In vivo PDT anticancer efficacy; set-up: species or system mice; details: ligand dose 1 mg/kg intratumoral, 90 J/cm^2, two treatments
Experimental: (§2) In vivo anticancer efficacy experiments on subcutaneous flank tumor mouse models of CT26 and HT29 were performed. The mice were intratumorally injected with (1) PBS control, (2) DBC-UiO, (3) DBP-UiO, (4) H2DBC, or (5) H2DBP at a ligand dose of 1 mg/kg or (6) DBC-UiO at a ligand dose of 3.5 mg/kg. Twelve hours post injection, each mouse in group (1)-(5) was irradiated at the tumor site with light (0.1 W/cm^2) for 15 min (90 J/cm^2) and the mice in group (6) received light irradiation (0.1 W/cm^2) for 30 min (180 J/cm^2). For (1) to (5) groups on the CT26 model, mice are treated again 4 days after first treatment, while for (1) to (5) groups on HT29 model, mice are treated every 4 days for total 4 treatments.

[4] = tested on: subcutaneous flank tumor mouse model of HT29; test: In vivo PDT anticancer efficacy; set-up: species or system mice; details: ligand dose 1 mg/kg intratumoral, 90 J/cm^2, four treatments
Experimental: as §2

Molecule 5, 15-di(p-benzoato)chlorin [H2DBC] has a μ1 ([1]; in DMF) of 8.27 ns, a μ1 ([1]; in HBSS) of 5.80 ns and a μ2 ([1]; in HBSS) of 8.77 ns. For the same molecule, the τ ([1]; in HBSS) was 8.15 ns, the “k (fitting parameter for 1O2 generation curve)” value [2] was 0.25 min⁻¹ and the IC50 (CT26 cells) was 8.5 ± 0.1 µM. For the same molecule, the IC50 (HT29 cells) was 7.5 ± 2.3 µM, the tumor growth [3] was “failed to suppress the tumor growth” and the tumor growth [4] was “failed to suppress the tumor growth”.

With `O=C(O)c1ccc(-c2c3nc(cc4ccc([nH]4)c(-c4ccc(C(=O)O)cc4)c4nc(cc5ccc2[nH]5)C=C4)C=C3)cc1` [H2DBP, 5,15-di(p-benzoato)porphyrin] the μ1 ([1]; aq) was 12.4 ns, the μ2 ([1]; aq) was 7.86 ns and the τ ([1]; aq) was 10.9 ns. The μ1 ([1]; in DMF) was 11.3 ns, the “k (singlet oxygen generation rate)” value ([2]; 5 μM in HBSS, 640 nm LED 100 mW/cm^2, listed as DBP) was 0.0015 s⁻¹ and the “k (fitting parameter for 1O2 generation curve)” value [2] was 0.06 min⁻¹. For the same molecule, the IC50 (CT26 cells) was 20 ± 3.1 µM, the IC50 (HT29 cells) was 17 ± 4 µM and the tumor growth [3] was “failed to suppress the tumor growth”. For the same molecule, the tumor growth [4] was “failed to suppress the tumor growth”.
